Literature values as cited in patent US20240058331A1, “COMBINATION THERAPIES FOR TREATMENT OF CIRRHOSIS WITH PORTAL HYPERTENSION” (priority 2022, published 2024).

Tests used:
[1] = moderate hepatic impairment vs healthy control participants; expected
ETB = target: T1, ETB (Homo sapiens, UniProt P24530); settings: up to 50 mM
T1 sequence (P24530 27-442): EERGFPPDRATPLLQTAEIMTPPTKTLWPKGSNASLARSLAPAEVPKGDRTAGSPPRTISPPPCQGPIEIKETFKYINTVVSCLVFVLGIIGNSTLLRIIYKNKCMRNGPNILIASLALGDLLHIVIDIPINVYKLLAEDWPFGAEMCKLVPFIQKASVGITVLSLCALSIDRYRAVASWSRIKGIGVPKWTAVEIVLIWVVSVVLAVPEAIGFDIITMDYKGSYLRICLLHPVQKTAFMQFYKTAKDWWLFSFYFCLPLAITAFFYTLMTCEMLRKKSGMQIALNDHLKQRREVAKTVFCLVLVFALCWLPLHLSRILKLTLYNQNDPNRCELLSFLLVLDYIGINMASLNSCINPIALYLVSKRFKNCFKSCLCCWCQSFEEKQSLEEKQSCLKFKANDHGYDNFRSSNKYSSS

[2] = unlikely to be clinically relevant with standard midazolam dosing
[3] = sedation for HVPG assessment

## CCOc1ccc(Cc2cc([C@@H]3O[C@H](CO)[C@@H](O)[C@H](O)[C@H]3O)ccc2Cl)cc1 [Dapagliflozin]
10 mg once daily, chronic kidney disease (DAPA-CKD) and heart failure (DAPA HF) populations
  safety or tolerability signals in participants with renal impairment: did not lead to any unique safety or tolerability signals
Doses up to 100 mg for 14 days
  tolerability in healthy volunteers: tolerable

## COc1nc(C)cnc1NS(=O)(=O)c1cccnc1-c1ccc(-c2nnco2)cc1 [Zibotentan]
[1]
  exposure, times higher in participants with moderate hepatic impairment compared to healthy control participants: 1.45 times
ETB
  effect at the ETB: no effect
[2]
  increase in midazolam exposure: 20%

## Cc1ncc2n1-c1ccc(Cl)cc1C(c1ccccc1F)=NC2 [Midazolam]
[3]
  influence on HVPG: does not influence HVPG
